From patent US11826448B2, “Zinc-arginine-chloride complex” (Colgate-Palmolive Company, priority 2018, dated 2023)

Test system: keratinocyte cell line (Hacat)
Experiment: Wound healing efficacy: scratch assay on a keratinocyte monolayer culture
Format: cell-based
Procedure: Wound healing efficacy is determined by incubating a monolayer cell culture with ZBA.
Briefly, a keratinocyte cell line (Hacat) was cultured with full confluency in a 24 well plate. The cells are then scratched horizontally and vertically with a pipet tips to generate a wound. The cells are washed twice with 1 mL of PBS buffer, then full culture medium (supplemented with 10% FBS and 1% antibiotic) is added to the scratched cells. The ZBA solution obtained from Example 1 is diluted with full culture medium at a concentration of 5 ppm or 50 ppm. Culture wells are incubated at 37° C. at 5% CO2 for up to 72 hours with either the ZBA medium mixture or with medium alone. The area of the scratches is then compared by light microscopy at different time points up to 72 hrs.

[1] = ZBA solution diluted in full culture medium at 5 ppm or 50 ppm, 37° C., 5% CO2, up to 72 hours, light microscopy

## [Zn(Arginine)2Cl]^+Cl^− [ZBA]
[1]
  cell migration into the scratch wound compared to medium alone: greater cell migration
  cell proliferation compared to medium alone: faster proliferation
In the presence of ZBA, up to 72 hours
  morphology of the cells adjacent to the wound: improved
